{
  "source": "patent US20240352053A1",
  "about": "“SALT AND CRYSTAL FORM OF EGFR INHIBITOR, AND COMPOSITION AND USE THEREOF” (BETTA PHARMACEUTICALS CO., LTD, priority 2021, published 2024)",
  "key": {"[1]": {"assay": "Pharmacokinetic test, oral administration in male SD rats", "assay_type": "in vivo, rat", "details": "plasma, 50 mg/kg, distilled water", "experimental": "Male SD rats purchased from Beijing Weitonglihua Experimental Animal Technology Co Ltd. were used for oral administration PK studies. The dose was 50 mg/kg, the preparation was distilled water, and the compound concentrations corresponding to the test compounds were 5 mg/mL, ready for use. Oral administration is by oral gavage at 10 mL/kg. Blood was collected through the rat orbital venous plexus, and […] was taken at each time point into an EDTA anticoagulant tube. The blood collection time is: 15 min, 30 min, 1 h, 2 h, 4 h, 7 h, 24 h, 30 h, 48 h, centrifuge at 4000 rpm for 10 min, take the supernatant to obtain 100 μL plasma, and store it in a −80° C. refrigerator, spare. After precipitating the protein from the above plasma sample with acetonitrile, take the supernatant and mix it with water 1:1, and take 10 μL for LC-MS/MS detection."}, "[2]": {"test_system": "human epidermal cancer cell A431 carrying EGFR WT", "details": "72 hours, CTG; data recorded in PCT/CN2021/075994; cited from earlier work"}, "[3]": {"test_system": "Ba/F3-Δ19del/T790M/C797S cells", "details": "72 hours, CTG; data recorded in PCT/CN2021/075994; read-out: Ba/F3/EGFR Δ19del/T790M/C797S IC50; cited from earlier work"}, "[4]": {"test_system": "Ba/F3 EGFR WT cells", "details": "72 hours, CTG; data recorded in PCT/CN2021/075994; read-out: BaF3 EGFR WT IC50; cited from earlier work"}, "[5]": {"assay": "Measurement of crystal form stability (HPLC chemical purity, XRPD)", "assay_type": "physicochemical", "details": "for Chemical purity (%) 0 days: HPLC", "experimental": "The X-ray powder diffraction pattern detection equipment and method of the present invention are as shown in the X-ray powder diffraction table in the instrument and analysis method. After the test compounds are placed under different temperature, humidity and light conditions for a period of time, the purity is tested. Purity testing method: Use high-performance liquid chromatography (HPLC) to detect the chemical purity of this product. Determine according to high performance liquid chromatography (“Chinese Pharmacopoeia” 2020 edition, Part IV, General Chapter 0512). […] XRPD characterization was performed on the samples after being placed under different temperature, humidity and light conditions for a period of time."}, "[6]": {"assay": "DVS test (dynamic vapor sorption)", "assay_type": "physicochemical", "from_the_text": "Take crystal form A of the compound represented by Formula III for DVS measurement, and the obtained DVS spectrum is shown in FIG. 5-2."}},
  "note": "pIC50: −log10 of the molar value. Like-named read-outs stand apart in the source and are kept apart here.",
  "data": [
    {"compound": "COc1cc(N2CCC(N3CCN(C)CC3)CC2)c(C)cc1Nc1ncc(Br)c(Nc2ccc3nc(C4CC4)ccc3c2P(C)(C)=O)n1.O=C(O)C[C@H](O)C(=O)O", "values": [
      {"measurement": "AUC(0-t)", "setting": "[1]; male, SD, rat, po", "result": 27400, "unit": "ng·h/mL"},
      {"measurement": "Cmax", "setting": "[1]; male, SD, rat, po, read-out: Cmax", "result": 1990, "unit": "ng/mL"}
    ]},
    {"compound": "COc1cc(N2CCC(N3CCN(C)CC3)CC2)c(C)cc1Nc1ncc(Br)c(Nc2ccc3nc(C4CC4)ccc3c2P(C)(C)=O)n1", "note": "[(6-((5-bromo-2-((2-methoxy-5-methyl-4-(4-(4-methylpiperazin-1-yl))piperidin-1-yl)phenyl)amino)pyrimidin-4-yl)amino)-2-cyclopropylquinolin-5-yl)dimethylphosphine oxide]", "values": [
      {"measurement": "pIC50", "setting": "[2]", "result": 5.95},
      {"measurement": "pIC50", "setting": "[3]", "result": 8.17},
      {"measurement": "pIC50", "setting": "[4]", "result": 6.82}
    ]},
    {"compound": "CCc1cc(Nc2ncc(Br)c(Nc3ccc4ncccc4c3P(C)(C)=O)n2)c(OC)cc1N1CCC(N2CCN(C)CC2)CC1", "note": "[Control Example 1, reference compound]", "values": [
      {"measurement": "pIC50", "setting": "[2]", "result": 6.61},
      {"measurement": "pIC50", "setting": "[3]", "result": 8.05},
      {"measurement": "pIC50", "setting": "[4]", "result": 7.40}
    ]},
    {"compound": "COc1cc(N2CCC(N3CCN(C)CC3)CC2)c(C)cc1Nc1ncc(Br)c(Nc2ccc3nc(C4CC4)ccc3c2P(C)(C)=O)n1.O=C(O)C[C@H](O)C(=O)O", "note": "[Crystal form A of the compound represented by formula III]", "values": [
      {"measurement": "AUClast", "setting": "[1]", "result": 47593, "unit": "ng·h/mL"},
      {"measurement": "Cmax", "setting": "[1]", "result": 2557, "unit": "ng/mL"},
      {"measurement": "Chemical purity (%) 0 days", "setting": "[5]", "result": 98.85, "unit": "%"},
      {"measurement": "Chemical purity (%) 60° C.", "setting": "[5]; 60° C., placement time 13 days", "result": 98.80, "unit": "%"},
      {"measurement": "Chemical purity (%) 92.5% RH", "setting": "[5]; placement time 13 days", "result": 98.98, "unit": "%"},
      {"measurement": "Chemical purity (%) 4500 lx illumination", "setting": "[5]; placement time 13 days", "result": 98.83, "unit": "%"},
      {"measurement": "hygroscopic weight gain", "setting": "[6]; 25° C./80% RH", "result": "about 3.43%"},
      {"measurement": "sample weight after placement in DVS", "setting": "[6]; 25° C./80% RH for 24 hours", "result": "remained basically unchanged"},
      {"measurement": "crystal form after placement in DVS", "setting": "[6]; 25° C./80% RH, after 24 hours", "result": "did not change"},
      {"measurement": "crystal form before and after the DVS test", "setting": "[6]; DVS, 25° C.", "result": "does not change"}
    ]},
    {"compound": "COc1cc(N2CCC(N3CCN(C)CC3)CC2)c(C)cc1Nc1ncc(Br)c(Nc2ccc3nc(C4CC4)ccc3c2P(C)(C)=O)n1.O=C(O)C[C@H](O)C(=O)O", "note": "[Crystal form J of the compound represented by formula III]", "values": [
      {"measurement": "Chemical purity (%) 0 days", "setting": "[5]", "result": 99.59, "unit": "%"},
      {"measurement": "Chemical purity (%) 92.5% RH", "setting": "[5]; placement time 10 days", "result": 99.59, "unit": "%"},
      {"measurement": "Chemical purity (%) 4500 lx illumination", "setting": "[5]; placement time 10 days", "result": 96.05, "unit": "%"}
    ]}
  ]
}
